Test results published in article PMC10714399, “Open Source Antibiotics: Simple Diarylimidazoles Are Potent against Methicillin-Resistant Staphylococcus aureus” (ACS Infectious Diseases, 2023).
In brackets after ≈: the same amount, converted by molar mass.

Experiments:
[1] = system: PMM (primary mouse macrophages); assay: Toxicity against PMM; type: cell-based; settings: PMM
Procedure: (§1) ADME and toxicity for compounds were measured according to procedures outlined in the manuscript submitted in parallel to this one;2 other procedures were used for those compounds analysed by Monash University (in vitro ADME) or UCL (toxicity), both described in the main

[2] = system: Enterococcus faecalis ATCC 51299 (vanA-positive; vancomycin-resistant); assay: In vitro antibacterial activity, MIC (UCL), VRE; type: cell-based; settings: read-out: VRE MIC (UCL)
Procedure: Staphylococcus aureus NCTC 13373 (mecA-positive; methicillin-resistant, NCTC 13373) was supplied by the National Collection of Type Cultures (NCTC), Public Health England, United Kingdom. Other organisms, S. aureus ATCC 25923 (methicillin-susceptible) and Enterococcus faecalis ATCC 51299 (vanA-positive; vancomycin-resistant), were obtained from the American Type Culture Collection (ATCC) via LGC Standards, UK. A suspension of each organism was prepared from an overnight plate culture (tryptone soya agar) in phosphate-buffered saline (PBS) and adjusted to an absorbance reading at 600 nm of 0.1, which is approximately equivalent to 1 × 10^8 colony-forming units (CFU) per mL. The cultures were further diluted 1:100 in isosensitest broth (Oxoid, United Kingdom) before 100 μL was used to inoculate each well of a 96-well plate that contained diluted samples of the OSA series. Compounds were evaluated over a 2-fold dilution range from 32 to 0.03 μg/mL. Stocks of the samples were prepared in 100% DMSO at […] before being diluted in isosenstitest broth. The highest concentration of DMSO present was 2%, which has been previously shown not to inhibit the growth of the microorganisms (data not shown). […] Vancomycin was used as a quality control compound.

[3] = system: MRC-5SV2 (human lung fibroblast cell line); assay: Toxicity against MRC-5SV2; type: cell-based; settings: MRC5 cells
Procedure: as §1

Aqueous solubility = type: physicochemical; settings: NEU; for solubility: thermodynamic from solid, read-out: Aqueous Solubility (NEU)
Source text: To guide our initial SAR exploration work, we obtained liver microsomal intrinsic clearance data for 5 of the 18 compounds assayed by CO-ADD (Supporting Information - CDCO Report and Supporting Information - Biology). We then acquired intrinsic clearance (CLint), plasma protein binding (PPB), and solubility data on further compounds throughout the SAR campaign (Supporting Information - Biology, Tables S3 and S4). […] The more polar compounds (lower LogD) had reduced PPB and were more metabolically stable.
(§2) Table S4. ADME and Pharmacokinetics: compounds only appearing in the Supplementary […]
(§3) MRSA Aqueous HLM CLint Rat Hep CLint
(§4) Cmpd MIC Solubility Human PPB (%) (µL/min/mg (µL/min/10x6 LogD7.4
(§5) (µg/mL) (µM) protein) cells)
as §1

[4] = Human plasma protein binding (PPB); type: in vitro ADME; settings: human, plasma, human plasma, NEU; read-out: Human PPB (NEU) (converted)
Source text: (§6) To guide our initial SAR exploration work, we obtained liver microsomal intrinsic clearance data for 5 of the 18 compounds assayed by CO-ADD (Supporting Information - CDCO Report and Supporting Information - Biology). We then acquired intrinsic clearance (CLint), plasma protein binding (PPB), and solubility data on further compounds throughout the SAR campaign (Supporting Information - Biology, Tables S3 and S4).
as §2, §3, §4, §5, §1

[5] = Human liver microsome intrinsic clearance; type: in vitro ADME; settings: human liver microsomes, NEU
Source text: as §6, §2, §3, §4, §5, §1

[6] = Rat hepatocyte intrinsic clearance; type: in vitro ADME; settings: rat hepatocytes, NEU; for hepatocyte CLint: read-out: Rat Hep CLint (NEU)
Source text: as §6, §2, §3, §4, §5, §1

[7] = system: Staphylococcus aureus NCTC 13373 (mecA-positive; methicillin-resistant); assay: In vitro antibacterial activity, MIC (UCL School of Pharmacy assay), MRSA; type: cell-based; settings: Staphylococcus aureus, UCL; read-out: MRSA MIC (UCL)
Method in brief: (§7)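 Broth microdilution MIC in isosensitest broth; inoculum from overnight tryptone soya agar culture suspended in PBS to A600 0.1 (~1 × 10^8 CFU/mL), then diluted 1:100. Compounds tested as 2-fold series from 32 to 0.03 μg/mL, DMSO at most 2%; vancomycin as quality control.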

[8] = system: S. aureus ATCC 25923 (methicillin-susceptible); assay: In vitro antibacterial activity, MIC (UCL), MSSA; type: cell-based, Staphylococcus aureus; settings: Staphylococcus aureus; read-out: MSSA MIC (UCL)
Method in brief: as §7

VSE = assay: In vitro antibacterial activity, MIC, VSE; type: cell-based; settings: read-out: VSE MIC (UCL)

| SMILES | MIC [2] [µg/mL] | solubility (Aqueous solubility) [µM] | fraction unbound [4] | microsomal CLint ([5]; read-out: HLM CLint (NEU)) [µL/min/mg] | Rat Hep CLint (NEU) [6] [uL/min/10x6 cells] | MIC [7] [µg/mL] | MIC [8] [µg/mL] | HLM CLint (NEU) [5] [uL/min/mg protein] | hepatocyte CLint [6] [µL/min/1e6 cells] | Aqueous Solubility (NEU) (Aqueous solubility) [µM] | MIC (VSE) [µg/mL] | PMM TC50 [1] [µM] | MRC5 TC50 [3] [µM] |
| --- | --- | --- | --- | --- | --- | --- | --- | --- | --- | --- | --- | --- | --- |
| COc1ccc2nc(-c3ccccn3)c(N(C)c3ccc(F)cc3)n2c1 [OSA_000980] | 8 (≈ 23 µM) | 17 (≈ 5.92 µg/mL) | 0.02 |  |  | 4 (≈ 11.5 µM) | 4 (≈ 11.5 µM) | 251 | > 300 |  |  | 8 | 2 |
| CCN(c1ccc(F)cc1)c1c(-c2ccccn2)nc2ccccn12 [OSA_000981] | 8 (≈ 24.1 µM) | 31 (≈ 10.3 µg/mL) | 0.022 |  |  | 2 (≈ 6.02 µM) | 2 (≈ 6.02 µM) | 180 | 148 |  |  | 8 | 4.9 |
| CC(C)CN(c1ccc(F)cc1)c1c(-c2ccccn2)nc2ccccn12 [OSA_000983] | 8 (≈ 22.2 µM) |  | 0.0042 |  | 234 | 2 (≈ 5.55 µM) | 4 (≈ 11.1 µM) | 58.8 |  | 8 |  | 23 | 54 |
| Clc1ccn2c(-c3ccc4occc4c3)c(-c3ccccn3)nc2c1 [OSA_000985] | 16 (≈ 46.3 µM) |  |  |  |  | 8 (≈ 23.1 µM) | 8 (≈ 23.1 µM) |  |  |  | 16 (≈ 46.3 µM) |  |  |
| NC(=O)c1ccc(-n2c(-c3ccccn3)nc3ccccc32)cc1 [OSA_000989] | > 32 |  |  |  |  | > 32 | > 32 |  |  |  | > 32 | 64 | 64 |
| c1ccc(-n2c(-c3ccccn3)nc3ccccc32)cc1 [OSA_000992] | > 32 |  |  |  |  | > 32 | > 32 |  |  |  | > 32 | 64 | 64 |

More lines, main results first:

| MIC [2] [µg/mL] | solubility (Aqueous solubility) [µM] | fraction unbound [4] | microsomal CLint ([5]; read-out: HLM CLint (NEU)) [µL/min/mg] | Rat Hep CLint (NEU) [6] [uL/min/10x6 cells] | MIC [7] [µg/mL] | MIC [8] [µg/mL] | HLM CLint (NEU) [5] [uL/min/mg protein] | hepatocyte CLint [6] [µL/min/1e6 cells] | Aqueous Solubility (NEU) (Aqueous solubility) [µM] | MIC (VSE) [µg/mL] | SMILES | PMM TC50 [1] [µM] | MRC5 TC50 [3] [µM] |
| --- | --- | --- | --- | --- | --- | --- | --- | --- | --- | --- | --- | --- | --- |
| 4 (≈ 11.2 µM) | 2 (≈ 0.717 µg/mL) | 0.0067 | 105 | 141 | 2 (≈ 5.58 µM) | 2 (≈ 5.58 µM) |  |  |  |  | Fc1ccc(N(CC2CC2)c2c(-c3ccccn3)nc3ccccn23)cc1 [OSA_000979] | 4 | 7.8 |
| 4 (≈ 11.5 µM) |  | 0.0073 |  | 108 | 2 (≈ 5.77 µM) | 2 (≈ 5.77 µM) | 61.8 |  | 3 |  | CCCN(c1ccc(F)cc1)c1c(-c2ccccn2)nc2ccccn12 [OSA_000982] | 2 | 4.3 |
| > 32 |  |  |  |  | > 32 | > 32 |  |  |  | > 32 | Fc1cc(-c2c(-c3ccccn3)nc3ccccn23)ccn1 [OSA_000986] |  |  |
| > 32 |  |  |  |  | > 32 | > 32 |  |  |  | > 32 | N#Cc1ccc(-n2c(-c3ccccn3)nc3ccccc32)cc1 [OSA_000990] | 64 | 64 |
| > 32 |  |  |  |  | > 32 | > 32 |  |  |  | > 32 | c1ccc(-c2nc3ccccc3n2-c2ccc3occc3c2)nc1 [OSA_000991] | 38.63 | 64 |
| > 32 |  |  |  |  | > 32 | > 32 |  |  |  | > 32 | c1ccc(Cn2c(-c3ccccn3)nc3ccccc32)cc1 [OSA_000993] | 64 | 64 |
| 32 (≈ 90.3 µM) |  |  |  |  | 16 (≈ 45.1 µM) | 32 (≈ 90.3 µM) |  |  |  | 32 (≈ 90.3 µM) | c1ccc(-c2nc3ccccc3n2-c2ccc(N3CCCCC3)cc2)nc1 [OSA_000994] | 15.32 | 19.81 |
